Reference: ChEMBL document CHEMBL1152299, “Indazole-based liver X receptor (LXR) modulators with maintained atherosclerotic lesion reduction activity but diminished stimulation of hepatic triglyceride synthesis” (J Med Chem, 2008)
Active and inactive are the calls of the source. The rule behind the calls is not given here.

Experiments:
Glucocorticoid receptor = target: T1, Glucocorticoid receptor (Homo sapiens, UniProt P04150); assay: Displacement of radiolabeled Dexamethasone from human glucocorticoid receptor by filter paper assay
T1 sequence (P04150 whole entry): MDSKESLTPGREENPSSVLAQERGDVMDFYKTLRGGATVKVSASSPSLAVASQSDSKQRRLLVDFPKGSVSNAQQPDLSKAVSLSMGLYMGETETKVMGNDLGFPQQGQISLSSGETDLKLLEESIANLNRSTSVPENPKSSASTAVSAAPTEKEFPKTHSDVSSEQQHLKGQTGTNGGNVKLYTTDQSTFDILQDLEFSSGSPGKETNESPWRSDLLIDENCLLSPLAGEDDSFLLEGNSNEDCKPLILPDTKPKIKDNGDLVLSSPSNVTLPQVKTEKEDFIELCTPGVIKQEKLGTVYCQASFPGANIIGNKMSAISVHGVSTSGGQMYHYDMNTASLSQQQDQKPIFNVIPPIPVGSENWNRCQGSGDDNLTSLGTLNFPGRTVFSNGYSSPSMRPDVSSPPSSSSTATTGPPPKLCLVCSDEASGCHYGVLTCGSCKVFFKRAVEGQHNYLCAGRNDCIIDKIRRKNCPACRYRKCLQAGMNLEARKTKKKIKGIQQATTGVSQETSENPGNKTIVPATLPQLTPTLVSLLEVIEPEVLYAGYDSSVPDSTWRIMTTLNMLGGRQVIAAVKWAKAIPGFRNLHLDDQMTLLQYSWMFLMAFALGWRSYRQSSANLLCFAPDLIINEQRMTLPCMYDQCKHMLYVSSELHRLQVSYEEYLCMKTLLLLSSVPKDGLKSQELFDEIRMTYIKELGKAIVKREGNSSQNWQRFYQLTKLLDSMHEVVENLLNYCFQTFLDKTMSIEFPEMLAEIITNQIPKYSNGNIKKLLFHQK

[1] = AUC (0 to infinity) in C57 mouse at 1 mg/kg, iv and 10 mg/kg, po; assay type: ADME, organism-based; conditions: plasma
[2] = Terminal half life in C57 mouse at 10 mg/kg, po; assay type: ADME, organism-based; design: dose 10 mg/kg, route oral; conditions: in vivo, read-out: beta t1/2 (converted)
Syrian golden hamster = assay: Induction of FAS gene expression in golden Syrian hamster liver at 100 mg/kg administered with chow diet for 7 days measured after 2 hrs of final dose by real time PCR; assay type: functional, organism-based; design: dose 100 mg/kg; conditions: Mesocricetus auratus
[3] = Cmax in male C57 mice after 10 mg/kg oral dose; assay type: ADME, organism-based; design: dose 10 mg/kg, route oral; conditions: C57, mouse, in vivo
Mus musculus [4] = assay: Upregulation of ABCA1 gene expression in LDL receptor knockout C57BL/6 mouse duodenum at 15 mg/kg administered with Western diet; assay type: functional; conditions: route oral
Mus musculus [5] = assay: Increase in CYP7A1 gene expression in LDL receptor knockout C57BL/6 mouse liver at 15 mg/kg administered with Western diet; assay type: functional
[6] = Clearance in C57 mouse at 1 mg/kg, iv and 10 mg/kg, po; assay type: ADME, organism-based; conditions: in vivo
Mus musculus [7] = assay: Reduction in atherosclerotic lesion size in LDL receptor knockout C57BL/6 mouse thoracic aorta at 15 mg/kg administered with Western diet after 8 weeks by oil Red-O staining; assay type: functional; design: scale not given: the % may be the effect or the level left
[8] = Half life in C57 mouse at 1 mg/kg, iv; assay type: ADME, organism-based; design: dose 1 mg/kg, route intravenous; conditions: in vivo
[9] = target: T2, Mineralocorticoid receptor (Homo sapiens, UniProt P08235); assay: Displacement of radiolabeled aldosterone from human mineralocorticoid receptor by filter paper assay
T2 sequence (P08235 whole entry): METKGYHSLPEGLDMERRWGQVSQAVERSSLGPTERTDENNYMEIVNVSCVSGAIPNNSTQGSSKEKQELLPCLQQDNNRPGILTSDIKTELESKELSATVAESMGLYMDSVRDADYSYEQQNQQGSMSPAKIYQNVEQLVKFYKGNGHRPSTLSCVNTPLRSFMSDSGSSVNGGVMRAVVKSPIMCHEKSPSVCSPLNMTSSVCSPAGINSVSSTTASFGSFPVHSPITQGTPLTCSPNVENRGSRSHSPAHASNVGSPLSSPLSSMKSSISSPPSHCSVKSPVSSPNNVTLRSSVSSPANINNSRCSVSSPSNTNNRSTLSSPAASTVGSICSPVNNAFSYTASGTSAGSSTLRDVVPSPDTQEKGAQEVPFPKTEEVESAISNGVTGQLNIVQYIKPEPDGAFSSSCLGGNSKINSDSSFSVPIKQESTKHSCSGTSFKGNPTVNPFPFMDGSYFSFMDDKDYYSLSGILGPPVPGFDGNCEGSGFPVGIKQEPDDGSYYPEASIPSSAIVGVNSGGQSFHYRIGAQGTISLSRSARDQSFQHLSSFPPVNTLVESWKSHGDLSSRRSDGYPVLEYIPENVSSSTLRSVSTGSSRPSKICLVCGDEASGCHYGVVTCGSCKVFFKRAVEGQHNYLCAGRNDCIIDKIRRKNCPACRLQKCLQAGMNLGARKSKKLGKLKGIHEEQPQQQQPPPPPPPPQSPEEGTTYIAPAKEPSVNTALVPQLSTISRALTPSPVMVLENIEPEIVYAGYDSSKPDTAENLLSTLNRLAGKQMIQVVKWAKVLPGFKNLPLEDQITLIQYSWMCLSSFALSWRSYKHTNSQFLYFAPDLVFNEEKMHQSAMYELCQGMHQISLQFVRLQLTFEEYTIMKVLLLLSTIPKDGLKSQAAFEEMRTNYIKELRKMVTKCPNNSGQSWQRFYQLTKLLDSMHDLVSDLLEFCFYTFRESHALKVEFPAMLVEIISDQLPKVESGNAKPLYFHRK

[10] = Bioavailability in C57 mouse at 1 mg/kg, iv and 10 mg/kg, po; assay type: ADME, organism-based; conditions: in vivo
[11] = Volume of distribution at steady state in C57 mouse at 1 mg/kg, iv and 10 mg/kg, po; assay type: ADME, organism-based; conditions: in vivo, read-out: Vdss
Mus musculus [12] = assay: Decrease in total cholesterol level in LDL receptor knockout C57BL/6 mouse plasma at 15 mg/kg administered with Western diet after 8 weeks; assay type: functional; design: scale not given: the % may be the effect or the level left
[13] = Tmax in C57 mouse at 1 mg/kg, iv and 10 mg/kg, po; assay type: ADME, organism-based; conditions: in vivo

For `Fc1ccc(-c2c3cccc(C(F)(F)F)c3nn2Cc2ccc(F)cc2Cl)cc1` [LXR-623], the IC50 (Glucocorticoid receptor) was 1 µM.
In the case of `Fc1ccc(-c2c3cccc(C(F)(F)F)c3nn2Cc2ccccc2F)cc1`, the AUC(0-inf) [1] is reported as 3100 ng·h/mL, the half-life [2] is reported as 5.8 h and the Activity (Syrian golden hamster) is reported as “inactive”. The Cmax [3] was 633 ng/mL, the “fold change (FC)” value (Mus musculus [4]) was 2.3 and the “fold change (FC)” value (Mus musculus [5]) was 4. It also gave a clearance [6] of 57 mL/min/kg, an Activity (Mus musculus [7]) of 28% and a half-life [8] of 7.9 h. For the same molecule, the IC50 (Glucocorticoid receptor) was 7.2 µM, the IC50 [9] was > 10 µM and the bioavailability [10] was 106%. It also gave a Vd [11] of 30.3 L/kg, an Activity (Mus musculus [12]) of 10% and a Tmax [13] of 0.5 h.
